# Values of other authors, collected in EP2338500A1, “Process for producing concentrated and refined actives from tissues and byproducts of Olea europaea with membrane technologies” (Phenofarm S.r.l., priority 2009, dated 2011).
# Test system: murine leukemic cells P-388
# Conditions: P-388 cells
row,Structure (SMILES),cytotoxic activity at a concentration ED50 [µg/mL]
1,C[C@@H]1O[C@@H](O[C@@H]2[C@@H](O)[C@H](OCCc3ccc(O)c(O)c3)O[C@H](COC(=O)/C=C/c3ccc(O)c(O)c3)[C@H]2O)[C@H](O)[C@H](O)[C@H]1O [isoverbascoside],10
2,C[C@@H]1O[C@@H](O[C@@H]2[C@@H](O)[C@H](OCCc3ccc(O)c(O)c3)O[C@H](CO)[C@H]2OC(=O)/C=C/c2ccc(O)c(O)c2)[C@H](O)[C@H](O)[C@H]1O [verbascoside],26
